In US20240207265A1, “TREATMENT OF CNS DISEASES WITH sGC STIMULATORS” (Tisento Therapeutics Inc., priority 2021, published 2024):

Legend:
[1] = tested on: cAMP response element-binding protein (CREB); test: sGC stimulator induced phosphorylation of CREB in rat primary neurons; type: cell-based; conditions: Primary neuron, 10 μM DETA-NONOate, free acid, geometrical mean, read-out: pCREB EC50
Method: Neurons were isolated from Sprague Dawley rat embryos on embryonic day 18 (E18). Approximately 10 embryos were obtained from each rat, and whole brains were isolated from the embryos. Hippocampus and cortex were dissected from the brains under a stereoscopic microscope using two fine tweezers. The meninges were carefully removed. After dissection, the tissues were chopped and washed gently once with 10 mL of Ca^2+ and Mg^2+ free Hank's balanced salt solution (HBSS, Corning cat #21-022-CM) in a 15-mL conical tube. After washing, 5 mL of a solution of 0.25% trypsin (Invitrogen cat #15090-046) and 0.1% deoxyribonuclease I (DNase I, Sigma cat #DN-25) were added to the tissues, then incubated at 37° C. for 15 min. Next, tissues were washed 3 times with ice-cold HBSS, 3 mL of a solution of 0.1% of DNase I was added, then tissues were slowly pipetted 12 times using a glass Pasteur pipette, followed by centrifugation at 500×g for 10 min. […]
For each test concentration, the compound was diluted in 100% DMSO to 100× its final assay concentration. […] Medium was removed, cells were lysed and levels of pCREB was determined according to Cisbio protocols (phospho-CREB (Ser133) catalog #64CREPEG). Plates were read using Envision instrument (PerkinElmer).
pCREB was determined for each well and analyzed with a […] (log(agonist) vs. response-variable slope) using GraphPad Prism Software v.8. […]

[2] = tested on: MK-801-induced memory deficit; test: Novel Object Recognition (NOR) test, MK-801-induced memory disruption; type: in vivo, rat; conditions: for Recognition Index vs Vehicle-MK-801 group: 1 mg/kg PO 60 min prior to training, MK-801 0.1 mg/kg; for side effects in NOR study: any dose tested, oral, Long Evans rats
Method: In the present study, a memory saving model was used. MK-801 (Dizocilpine), an uncompetitive antagonist of the NMDA receptor was used to cause deficit of recognition memory. sGC stimulators were evaluated for their efficacy to prevent memory impairment induced by MK-801.
Adult male Long-Evans rats (275-299 gram at arrival from Envigo, Indianapolis, IN) were used in this study. Rats were placed in the experimental rooms and assigned unique identification numbers (tail marks). Rats were housed 2 per cage in polycarbonate cages with filter tops and acclimated for at least 7 days prior to testing. Animal room was maintained in a 12/12 h light/dark cycle (lights on at 07.00 EST), 22±1° C. and relative humidity at approximately 50%. Food and water were provided ad libitum. All animals were examined, handled and weighed prior to the study to assure adequate health and to minimize the non-specific stress associated with testing. Each animal was randomly assigned across the treatment groups. The experiments were conducted during the animal's light cycle phase.
MK-801 (0.1 mg/kg; Sigma-Aldrich) was dissolved in saline and injected IP, 15 min prior to NOR training. The dose volume was 1 ml/kg.
Galantamine (1 mg/kg; Tocris) was dissolved in saline and injected IP, 15 minutes prior to training. The dose volume was 1 ml/kg.
Compound I-20 (0.03, 0.3 and 1 mg/kg) was formulated in vehicle (0.5% (w/w) methyl cellulose and 0.5% (w/w) Tween 80 in ultrapure water) and orally dosed 60 min prior to NOR training at 2 ml/kg dose volume.
Compound I-14 (0.01, 0.1 and 1 mg/kg) was formulated as its Na+ salt as a solution in MilliQ water and stored as frozen aliquots. The aliquots of compound solutions and compound vehicle were stored in −80° C. and freshly thawed on each testing day. The compound and vehicle were orally dosed 60 minutes prior to NOR training. The dose volume was 10 ml/kg.
NOR test was conducted in an open-field arena (40×40 cm) placed in a sound-attenuated room under dimmed lighting. Each rat was tested separately, and care was taken to remove olfactory/taste cues by cleaning the arena and test objects with 70% alcohol between trials and rats. All training and testing trials were video-taped and scored by an observer blind to treatments.
On Days 1 and 2, rats were allowed to freely explore the arena (no objects inside) for a 5-minute habituation period. On Day 3 (training and testing day), rats were administered vehicle, saline and/or compound solution according to corresponding pretreatment, which is defined as time between injection and start of NOR training. Each animal was placed into the test arena in the presence of two identical objects. Each rat was placed in the arena facing the same direction at the same position, and the time spent actively exploring the objects during a 3-minute training period (T1) was recorded. The rat was returned to its home cage following training. NOR test (T2) was conducted 1 hour after T1. Each rat was placed back into the test arena in the presence of one familiar object and one novel object for 5 minutes, and the time spent exploring both objects was recorded. […]
Data of NOR test (T2) were expressed as Recognition Index, which is defined as the ratio of the time spent exploring the novel object over the total time spent exploring both objects (Novel/(Familiar+Novel)×100%) during the test session.
For Compound I-14, data were analyzed in two batches separately. […] Data were analyzed with t-test to evaluate the validity of the test. […]

Row | Structure (SMILES) | EC50 [1] [nM] | Recognition Index vs Vehicle-MK-801 group ([2]; 0-1 minute time range) | Recognition Index vs Vehicle-MK-801 group ([2]; 0-3 minute time range) | Recognition Index vs Vehicle-MK-801 group ([2]; 0-5 minute time range) | side effects in NOR study [2]
1 | Cc1cc(F)c(Cc2nc(-c3ncc(F)c(O)n3)cn3ccnc23)cc1F [Compound I-14, 5-fluoro-2-(8-(2,5-difluoro-4-methylbenzyl)imidazo[1,2-a]pyrazin-6-yl)pyrimidin-4-ol] | 21 | reversed the deficit | trend (P<0.10) in reversing MK-801-induced memory deficit | significantly higher Recognition Index | None of the rats in this study showed obvious side effects at any dose
2 | Oc1nc(-c2cn3ccnc3c(Cc3cc(F)ccc3F)n2)ncc1F [Compound I-20, 5-fluoro-2-(8-(2,5-difluorobenzyl)imidazo[1,2-a]pyrazin-6-yl)pyrimidin-4-ol] | 13 |  |  |  | None of the rats in this study showed obvious side effects at any dose
